Series [1] has as its target T1, rat ASCT2 (Rattus norvegicus, UniProt D3ZJ25).
T1 construct: The coding region of the cDNA was subcloned into the EcoRI site of the pBK-CMV vector; expressed in transfected cells; host or cells: HEK293 (human embryonic kidney), transient transfection, pBK-CMV vector
T1 sequence (D3ZJ25 1-555): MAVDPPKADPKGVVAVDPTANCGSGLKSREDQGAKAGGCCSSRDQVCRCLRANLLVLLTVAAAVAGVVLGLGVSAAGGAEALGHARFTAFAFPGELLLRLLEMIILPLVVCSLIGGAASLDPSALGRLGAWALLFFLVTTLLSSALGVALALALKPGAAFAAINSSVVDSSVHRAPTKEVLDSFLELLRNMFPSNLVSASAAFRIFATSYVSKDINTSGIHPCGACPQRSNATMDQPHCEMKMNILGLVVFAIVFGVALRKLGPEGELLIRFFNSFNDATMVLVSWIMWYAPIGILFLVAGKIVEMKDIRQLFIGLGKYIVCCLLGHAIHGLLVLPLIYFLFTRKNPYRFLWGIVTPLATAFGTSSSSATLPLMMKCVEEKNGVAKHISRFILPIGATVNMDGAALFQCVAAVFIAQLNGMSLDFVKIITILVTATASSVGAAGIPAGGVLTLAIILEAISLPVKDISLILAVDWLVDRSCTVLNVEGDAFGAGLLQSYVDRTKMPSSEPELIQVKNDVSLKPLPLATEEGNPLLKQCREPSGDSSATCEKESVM
Put plainly: Whole-cell patch-clamp recording of ASCT2-associated anion current in transfected HEK293 cells. The format is cell-based. As to conditions: for Km: apparent Km for the active compounds from anion current dose response, called Ki in text for the inhibitors L-DOPS and γ-FBP; for Imax, maximum currents relative to 1 mM alanine: whole-cell anion current, membrane potential 0 mV, internal 130 mM NaSCN and 10 mM alanine, negative = outward current (inhibitor); for Anion current response / ligand character: whole-cell current, result in words; for Anion current activity: at the maximum concentration tested, 500 μM. The text has this: (§1) We used transporter-mediated anion current as a measure of transport/inhibition activity […] We have previously shown that anion current is a measure of transport activity, due to the kinetic coupling of transport and anion flux, and this fact is also well established for the homologous glutamate transporters, which have a much more rigorously determined pharmacology. Anion current is activated when the transporter visits certain states in the transport cycle, such as the fully Na^+/substrate occupied state (substrate-induced anion conductance), or the Na^+-bound state (leak conductance). Thus, transported substrates induce anion current and non-transported inhibitors block the leak anion current. […] Functional characterization by patch clamping is a powerful approach when combined with virtual screening that prioritizes molecules from large libraries, but precludes screening of large amounts of compounds due to its labor-intensive nature.
cDNA coding for rat ASCT2 was kindly provided by S. Bröer. The coding region of the cDNA was subcloned into the EcoRI site of the pBK-CMV vector (Stratagene). The cDNA construct was used to transiently transfect human embryonic kidney cells (HEK293, ATCC No. CGL 1573) with leptrime reagent (Polyplus, Ilkrich, France). Transfection was performed as detailed in the supplier’s instructions. Electrophysiological recordings were performed 24–48 h after transfection.
ASCT2-associated whole-cell currents were recorded with an Adams & List EPC7 amplifier (HEKA, Lambrecht, Germany) using voltage-clamp conditions. Open-tip electrode resistances were 2–3 MΩ and the series resistance (R S) was 5–8 MΩ. R S was not compensated in the recordings, as compensation had no effect on the magnitude of the observed currents. The extracellular bath solution contained (in mM): 140 NaMES, 2 MgGluconate2, 2 CaGluconate2, and 10 HEPES (MES = methanesulfonic acid, pH 7.4 / NaOH). The pipette solution contained (in mM): 130 NaSCN, 2 MgCl2, 10 EGTA, 10 HEPES, and 10 L-alanine/cysteine (pH 7.3 / NaOH). Using this intracellular solution, the transporters operate in the Na^+/alanine exchange mode. Here, external alanine is exchanged with internal alanine in the absence of net transport. The exchange mode is associated with the activation of an uncoupled anion current, which was used as an indirect measure of transport activity. The currents were low pass filtered at 3 kHz (EPC7 built-in filter) and digitized with a digitizer board (Digidata 1200, Axon Instruments, Foster City, CA, USA) at a sampling rate of 10–50 kHz (controlled by software, Axon PClamp7). All experiments were performed at room temperature. Rapid solution exchange was essentially performed as described previously. Briefly, substrates and inhibitors were applied to the ASCT2-expressing HEK293 cells with a quartz tube (350 μm tube diameter) positioned at a distance of ≈0.5 mm to the cell. The linear flow rate of the solutions emerging from the opening of the tube was approximately 5–10 cm/s.
(In general: The patch-clamp technique gives a direct electrical read-out from membranes.)

A short description of series [2]: Solubility in water. The series is classed as physicochemical. The following applies: required 5% DMSO at concentrations higher than 1 mM.
Series [3] addresses T2, ASCT2 (Rattus norvegicus, UniProt D3ZJ25).
T2 construct: expressed in transfected cells
T2 sequence (D3ZJ25 1-555): T1 sequence (D3ZJ25 1-555)
The series is described as follows: Voltage-jump exchange-mediated transient transport current in ASCT2-expressing cells. As to conditions: benzylserine 5 mM (S2 Fig). The series is classed as cell-based.
Description: as §1
Supplementary file pcbi.1004477.s002.pdf: S2 Fig Exchange current is mediated by a transported substrate, but not by a non-transported inhibitor. Voltage jumps induce transport-mediated exchange current (due to voltage-dependent re-equilibration of the translocation equilibrium) in the presence of the transported substrate alanine (1 mM, black trace), but not in the presence of the non-transported inhibitor benzylserine (5 mM, red trace). […]

Series [4] addresses T3, ASCT2 mediated glutamine uptake in C8161 melanoma cells (Homo sapiens, UniProt Q15758).
T3 construct: C8161 cells (1 × 10^5/well) were incubated with [^3H]-L-glutamine; endogenous in cells; host or cells: C8161 human melanoma cell line
T3 sequence (Q15758 1-541): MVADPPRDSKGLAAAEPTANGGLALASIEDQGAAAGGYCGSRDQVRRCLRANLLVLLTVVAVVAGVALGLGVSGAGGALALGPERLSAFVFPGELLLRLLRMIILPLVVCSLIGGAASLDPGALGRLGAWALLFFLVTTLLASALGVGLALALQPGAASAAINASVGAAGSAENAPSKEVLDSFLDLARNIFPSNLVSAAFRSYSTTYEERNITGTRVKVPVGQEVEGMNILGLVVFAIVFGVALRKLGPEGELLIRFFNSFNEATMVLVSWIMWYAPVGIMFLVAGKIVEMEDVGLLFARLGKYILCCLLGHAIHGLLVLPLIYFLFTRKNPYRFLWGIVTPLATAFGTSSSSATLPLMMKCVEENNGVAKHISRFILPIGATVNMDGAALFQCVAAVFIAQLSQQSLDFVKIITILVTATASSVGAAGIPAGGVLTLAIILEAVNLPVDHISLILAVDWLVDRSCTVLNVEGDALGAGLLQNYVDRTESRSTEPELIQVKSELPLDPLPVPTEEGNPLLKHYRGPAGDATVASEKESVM
Further details: method as in PMID 24531984. As to conditions: cited from earlier work.

Several values for one entry are separate records, joined by “and”; a condition that tells them apart may be missing. Identical values can stand only once.

Broadly, the Km is the substrate concentration at which the rate is half of its maximum. As for `CC(C)(S)[C@@H](N)C(=O)O` [Penicillamine, reference compound], in series [1], the Km came out at 1370 ± 680 µM; the “Imax, maximum currents relative to 1 mM alanine” value worked out at 0.68 ± 0.08; the “Anion current response / ligand character” value was “activated inwardly-directed anion currents”.
On to `O=C(O)[C@H]1NCC[C@H]1O` [cis-3-hydroxyproline], for which, in series [1], the Michaelis-Menten constant (Km) amounted to 19 ± 10 µM; the “Imax, maximum currents relative to 1 mM alanine” value is 1.39 and 1.39 ± 0.1; the “Anion current response / ligand character” value is reported as “activated inwardly-directed anion currents”.
Turning to `Cc1ccc2[nH]c(C(=O)O)c(CN(C)Cc3ncc[nH]3)c2c1` [3-{[(1H-imidazol-2-ylmethyl)(methyl)amino]methyl}-5-methyl-1H-indole-2-carboxylic acid], the Solubility in water entry in series [2] was “poorly soluble in water”. Also, the Anion current activity result in series [1] is “inactive”.
As to `C[C@H](N)C(=O)O` [Alanine], in series [1], the Km came out at 410 ± 20 µM and the “Imax, maximum currents relative to 1 mM alanine” value is given as 1.
With `CC(C)(N)C(=O)O` [AIB], the Anion current response entry in series [1] (at concentrations up to 5 mM) was “did not elicit any significant response”.
In the case of `O=C(O)[C@H](Cc1c[nH]c2ccccc12)NCCc1ccccc1` [N-(2-phenylethyl)tryptophan], the Solubility in water result in series [2] is recorded as “poorly soluble in water”. Moreover, the Anion current activity entry in series [1] was “inactive”.
As for `O=C(O)[C@@H]1CCCN1` [proline, reference compound], the “Anion current response / ligand character” value in series [1] is “not an ASCT2 ligand”.
Turning to `N[C@H](C(=O)O)[C@@H]1CC(Cl)=NO1` [Acivicin, reference compound], in series [1], the Michaelis-Menten constant (Km) came out at 5100 ± 1500 µM and the “Imax, maximum currents relative to 1 mM alanine” value turned out to be 0.45 ± 0.03.
`O=C(O)C1NCCS1` (stereo not shown) [thiazolidine-2-carboxylate]: the Anion current response entry in series [1] (at concentrations up to 5 mM) is “did not elicit any significant response”.
As for `O=C(O)C1CC(OCc2ccccc2)CN1` (stereo not shown) [4-hydroxyproline-benzylether], the “Anion current response / ligand character” value in series [1] was “not significantly different from zero”.
As for `N[C@H](C(=O)O)[C@H](O)c1ccc(O)c(O)c1` [L-DOPS, reference compound], in series [1], the Michaelis-Menten constant (Km) turned out to be 1950 ± 900 µM; the “Imax, maximum currents relative to 1 mM alanine” value is given as -0.03 ± 0.01; the “Anion current response / ligand character” value is reported as “weak inhibitor”. Moreover, the Ki in series [1] (apparent affinity, inhibition of leak anion conductance, read-out: Ki) was approximately 2 mM. Moreover, the “Inhibition of alanine-induced responses” value in series [1] (at concentrations up to 5 mM) is “unable to significantly inhibit alanine-induced responses”.
The term IC50 denotes the concentration at which inhibition is half-maximal. `N[C@@H](COCc1ccccc1)C(=O)O` [benzylserine]: the “Exchange-mediated transient transport currents upon voltage jumps” value in series [3] is recorded as “unable to elicit exchange-mediated transient transport currents”. Further, the IC50 in series [4] is 5.3 mM.
